Experimental data from ChEMBL document CHEMBL4706659, “Design, synthesis and biological evaluation of novel 2,4-diaryl pyrimidine derivatives as selective EGFR inhibitors” (Eur J Med Chem, 2021).

Legend:
[1] = Antiproliferative activity against human RPC9 cells; assay type: functional, cell-based
PC-9 [2] = test: Antiproliferative activity against human PC-9 cells; assay type: functional, cell-based
SK-BR-3 = test: Antiproliferative activity against human SK-BR-3 cells; assay type: functional, cell-based
BT-474 = test: Antiproliferative activity against human BT-474 cells; assay type: functional, cell-based
NCI-H1975 [3] = test: Antiproliferative activity against human NCI-H1975 cells harboring EGFR T790M/L858R mutant by MTT assay; assay type: functional, cell-based
PC-9 [4] = test: Antiproliferative activity against human PC-9 cells harboring EGFR L858R mutant by MTT assay; assay type: functional, cell-based
[5] = Selectivity ratio of IC50 for antiproliferative activity against human NCI-H292 cells harboring wild-type EGFR to IC50 for antiproliferative activity against human NCI-H1975 cells harboring EGFR T790M/L858R mutant; assay type: functional
NCI-H292 = test: Antiproliferative activity against human NCI-H292 cells harboring wild-type EGFR by MTT assay; assay type: functional, cell-based
NCI-H1975 [6] = test: Antitumor activity against human NCI-H1975 cells harboring EGFR T790M/L858R mutant xenografted in nude mouse assessed as tumor volume at 15 mg/kg, po administered once daily for 7 days (reference value: 843 mm3); assay type: functional; conditions: time 7 day
HK-2 = test: Cytotoxicity against HK-2 cells assessed as reduction in cell viability by MTT assay; assay type: cell-based; conditions: Homo sapiens
[7] = Cytotoxicity against HLF cells assessed as reduction in cell viability by MTT assay; assay type: cell-based; conditions: Homo sapiens
NCI-H1975 [8] = test: Antitumor activity against human NCI-H1975 cells harboring EGFR T790M/L858R mutant xenografted in nude mouse assessed as tumor growth inhibition at 15 mg/kg, po administered once daily for 7 days relative to control; assay type: functional; conditions: time 7 day
[9] = Cytotoxicity against HEK293-A cells assessed as reduction in cell viability by MTT assay; assay type: cell-based; conditions: Homo sapiens
[10] = Half life in Sprague-Dawley rat at 10 mg/kg, po administered as single dose; assay type: ADME, organism-based; conditions: in vivo
[11] = AUC (0 to infinity) in Sprague-Dawley rat at 10 mg/kg, po administered as single dose; assay type: ADME, organism-based; design: time infinity, route oral, dose 10 mg/kg; conditions: in vivo
[12] = Oral bioavailability in Sprague-Dawley rat at 10 mg/kg administered as single dose; assay type: ADME, organism-based; conditions: in vivo
[13] = Tmax in Sprague-Dawley rat at 10 mg/kg, po administered as single dose; assay type: ADME, organism-based; conditions: in vivo
[14] = MRT in Sprague-Dawley rat at 2 mg/kg, iv administered as single dose; assay type: ADME, organism-based; conditions: in vivo
[15] = Half life in Sprague-Dawley rat at 2 mg/kg, iv administered as single dose; assay type: ADME, organism-based; conditions: in vivo
[16] = MRT in Sprague-Dawley rat at 10 mg/kg, po administered as single dose; assay type: ADME, organism-based; conditions: in vivo
[17] = AUC (0 to t) in Sprague-Dawley rat at 2 mg/kg, iv administered as single dose; assay type: ADME, organism-based; design: dose 2 mg/kg; conditions: in vivo
[18] = Cmax in Sprague-Dawley rat at 10 mg/kg, po administered as single dose; assay type: ADME, organism-based; design: route oral, dose 10 mg/kg; conditions: in vivo
[19] = AUC (0 to infinity) in Sprague-Dawley rat at 2 mg/kg, iv administered as single dose; assay type: ADME, organism-based; design: route intravenous, time infinity, dose 2 mg/kg; conditions: in vivo
[20] = Clearance in Sprague-Dawley rat at 2 mg/kg, iv administered as single dose; assay type: ADME, organism-based; conditions: in vivo
[21] = Cmax in Sprague-Dawley rat at 2 mg/kg, iv administered as single dose; assay type: ADME, organism-based; design: route intravenous, dose 2 mg/kg; conditions: in vivo
[22] = AUC (0 to t) in Sprague-Dawley rat at 10 mg/kg, po administered as single dose; assay type: ADME, organism-based; design: dose 10 mg/kg; conditions: in vivo
NCI-H1975 [23] = test: Antiproliferative activity against human NCI-H1975 cells; assay type: functional, cell-based
[24] = Antiproliferative activity against human DiFi cells; assay type: functional, cell-based

IC50 (NCI-H1975 [3]) | IC50 (PC-9 [4]) | IC50 (NCI-H292) | Compound | Ratio IC50 [5] | other results
– | – | – | CN(C)C/C=C/C(=O)Nc1cc2c(Nc3ccc(F)c(Cl)c3)ncnc2cc1O[C@H]1CCOC1 [AFATINIB] | – | IC50 [1]: 164 nM; IC50 (PC-9 [2]): 0.3 nM
– | – | – | COc1cc2ncnc(Nc3ccc(F)c(Cl)c3)c2cc1NC(=O)/C=C/CN1CCCCC1 [DACOMITINIB ANHYDROUS] | – | IC50 (SK-BR-3): 15 nM; IC50 (BT-474): 18 nM
1120 nM | 2320 nM | > 10000 nM | C=CC(=O)Nc1cc(Nc2nccc(-c3cn(C4CC4)c4ccccc34)n2)c(OC)cc1OCCCSC | >8.9 | –
333 nM | 734 nM | > 10000 nM | C=CC(=O)Nc1cc(Nc2nccc(-c3cn(C4CC4)c4ccccc34)n2)c(OC)cc1N1CCSCC1 | >30 | –
445 nM | 203 nM | 3760 nM | C=CC(=O)Nc1cc(Nc2nccc(-c3cn(C4CC4)c4ccccc34)n2)c(OC)cc1OCCC[S+](C)[O-] (stereo not drawn) | 8.5 | –
1300 nM | 1320 nM | 2630 nM | C=CC(=O)Nc1cc(Nc2nccc(-c3cn(C4CC4)c4ccccc34)n2)c(OC)cc1N(C)CCSC | 2 | –
411 nM | 261 nM | 1140 nM | C=CC(=O)Nc1cc(Nc2nccc(-c3cn(C4CC4)c4ccccc34)n2)c(OC)cc1N(C)CC[S+](C)[O-] (stereo not drawn) | 2.8 | –
21 nM | 44 nM | 674 nM | C=CC(=O)Nc1cc(Nc2nccc(-c3cn(C4CC4)c4ccccc34)n2)c(OC)cc1SCCN(C)C | 32.1 | –
– | – | – | C=CC(=O)Nc1cc(Nc2nccc(-c3cn(C)c4ccccc34)n2)c(OC)cc1[S+]([O-])CCN(C)C (stereo not drawn) | – | half-life [10]: 85.8 min; AUC(0-inf) [11]: 652 ng·h/mL; bioavailability [12]: 31.6%; Tmax [13]: 1 h; MRT [14]: 53.4 min; half-life [15]: 37.2 min; MRT [16]: 2.07 h; AUC(0-t) [17]: 402 ng·h/mL; Cmax [18]: 275 ng/mL; AUC(0-inf) [19]: 406 ng·h/mL; clearance [20]: 82.2 mL/min/kg; Cmax [21]: 789 ng/mL; AUC(0-t) [22]: 635 ng·h/mL
8 nM | 5 nM | 432 nM | C=CC(=O)Nc1cc(Nc2nccc(-c3cn(C4CC4)c4ccccc34)n2)c(OC)cc1OCCN(C)C | 54 | –
– | – | – | C=CC(=O)Nc1cccc(Nc2nc(Nc3ccc(N4CCN(C(C)=O)CC4)cc3OC)ncc2C(F)(F)F)c1 [ROCILETINIB] | – | IC50 (NCI-H1975 [23]): 23 nM; IC50 (PC-9 [2]): 84 nM
9 nM | 5 nM | 156 nM | C=CC(=O)Nc1cc(Nc2ncc(Cl)c(-c3cn(C4CC4)c4ccccc34)n2)c(OC)cc1[S+]([O-])CCN(C)C (stereo not drawn) | 17.3 | –
8 nM | 9 nM | 157 nM | C=CC(=O)Nc1cc(Nc2ncc(Cl)c(-c3cn(C4CC4)c4ccccc34)n2)c(OC)cc1SCCN(C)C | 19.6 | –
544 nM | 435 nM | 4810 nM | C=CC(=O)Nc1cc(Nc2nccc(-c3cn(C4CC4)c4ccccc34)n2)c(OC)cc1OCC[S+](C)[O-] (stereo not drawn) | 8.8 | –
– | – | – | C#Cc1cccc(Nc2ncnc3cc(OCCOC)c(OCCOC)cc23)c1 [ERLOTINIB] | – | IC50 [24]: 20 nM
– | – | – | C=CC(=O)Nc1cccc(Oc2nc(Nc3ccc(N4CCN(C)CC4)cc3OC)ncc2Cl)c1 | – | IC50 (NCI-H1975 [23]): 47 nM; IC50 (PC-9 [2]): 36 nM
74 nM | 64 nM | 1690 nM | C=CC(=O)Nc1cc(Nc2nccc(-c3cn(C4CC4)c4ccccc34)n2)c(OC)cc1N(C)CCO | 22.9 | –
543 nM | 648 nM | 9770 nM | C=CC(=O)Nc1cc(Nc2nccc(-c3cn(C4CC4)c4ccccc34)n2)c(OC)cc1OCCSC | 18 | –

Compound | IC50 (NCI-H1975 [3]) | IC50 (PC-9 [4]) | IC50 (NCI-H292) | Ratio IC50 [5] | other results
C=CC(=O)Nc1cc(Nc2nccc(-c3cn(C)c4ccccc34)n2)c(OC)cc1N(C)CCN(C)C [OSIMERTINIB] | […] | […] | 924 nM | – | Activity (NCI-H1975 [6]): 21 mm3; IC50 (HK-2): 2720 nM; IC50 [7]: 3.35 µM; TGI (NCI-H1975 [8]): 97.64%; IC50 [9]: 2250 nM
